Assay results taken from US11242351B2, “Tricyclic inhibitors of the BCL6 BTB domain protein-protein interaction and uses thereof” (priority 2017, dated 2022).
Like-named read-outs stand apart in the source and are kept apart here.

Legend:
[1] = tested on: Karpas422 cells; assay: Tumor cell growth inhibition assay; format: cell-based; details: Homo sapiens, KARPAS-422, 144 h, read-out: GI Karpas EC50
Description: Tumor Cell Growth Inhibition Assay:
Karpas422 cells were seeded into a 96-well plate at 2,000 cells/well in 150 μl medium (Alpha-MEM containing 10% FBS, […] Normocin, and […] Gentamycin, Invitrogen). A HP D300 digital dispenser was used to dose cells with DMSO or test compounds across a 10-point range of concentrations (high dose of 5 μM), and cultures were grown in a humidified 5% CO2 incubator at 37° C. After six days, plates were removed from incubator and equilibrated to room temperature. An equal volume of ATPlite assay reagent was added to each well, and samples were processed according to the manufacturer's instructions (Perkin Elmer). The luminescent signal was measured using an Envision plate reader equipped with a US-Luminescence detector.

[2] = tested on: BCL6 reporter construct in SuDHL4-3×BCL6-TK-Luc cells; assay: Cell-based luciferase assay (BCL6 reporter); details: 48 h, read-out: Luc IC50
Description: Cell-Based Luciferase Assay:
A BCL6 reporter construct containing three copies of the consensus BCL6 binding site, the TK promoter, and the firefly luciferase gene was stably expressed in SuDHL4 cells after lentivirus infection and selection with Blasticidin. SuDHL4-3×BCL6-TK-Luc cells were seeded into a Viewplate 384-well assay dish at 15,000 cells/well in […] (Alpha-MEM high glucose containing 10% FBS, 25 mM HEPES, […] GlutaMAX, 100 µg/mL Normocin, and […] Gentamycin, Invitrogen). A HP D300 digital dispenser was used to dose cells with DMSO or test compounds across a 10-point range of concentrations (high dose of 10 μM), and cultures were grown in a humidified 5% CO2 incubator at 37° C. After two days, plates were removed from the incubator and equilibrated to room temperature. An equal volume of neolite reporter gene assay reagent was added to each well, and samples were processed according to the manufacturer's instructions (Perkin Elmer). The luminescent signal was measured using an Envision plate reader equipped with a US-Luminescence detector.

[3] = molecular target: BCL6 BTB domain (biotin-thrombin-BCL6 amino acids 1-129) (Homo sapiens (Human), UniProt P41182); assay: Surface Plasmon Resonance (SPR) assay; format: binding; details: Biacore T200, single cycle kinetic analysis
Description: Surface Plasmon Resonance (SPR) Assay
SPR studies were performed using a Biacore™ T200 instrument (GE Health Sciences Inc.). […] The Biacore flow rate was set at 100 μl/min. […] Curve fitting and KD calculations were performed with the Biacore T200 Evaluation software (GE Health Sciences Inc).

[4] = Karpas422 cells, six days, ATPlite
[5] = SuDHL4-3×BCL6-TK-Luc cells, two days

Row | SMILES | EC50 [1, 4] [nM] | IC50 [2, 5] [nM] | Kd [3] [nM] | EC50 [1] [nM] | IC50 [2] [nM]
1 | C[C@H]1CN(C2COC2)CCN1c1cc(NC(=O)Cn2cc(-c3cc(C(N)=O)c(O)c(Cl)c3F)c3c(=O)n4c(nc32)CCC4)c(Cl)c(F)n1 [I-26, (S)-3-chloro-5-(1-(2-((3-chloro-2-fluoro-6-(2-methyl-4-(oxetan-3-yl)piperazin-1-yl)pyridin-4-yl)amino)-2-oxoethyl)-4-oxo-4,6,7,8-tetrahydro-1H-dipyrrolo[1,2-a:2′,3′-d]pyrimidin-3-yl)-4-fluoro-2-hydroxy-benzamide] | 549 | 585 | 30.2 |  | 
2 | CN(C)c1cc(NC(=O)Cn2cc(-c3cc(C(N)=O)c(O)c(Cl)c3F)c3c(=O)n4c(nc32)CCC4)c(Cl)c(F)n1 [I-27, 3-chloro-5-(1-(2-((3-chloro-6-(dimethyl-amino)-2-fluoro-pyridin-4-yl)amino)-2-oxoethyl)-4-oxo-4,6,7,8-tetrahydro-1H-dipyrrolo[1,2-a:2′,3′-d]pyrimidin-3-yl)-4-fluoro-2-hydroxy-benzamide] |  |  | 190 | 1630 | 1140
3 | CCN1CCN(c2cc(NC(=O)Cn3cc(-c4cc(C(N)=O)c(O)c(Cl)c4F)c4c(=O)n5c(nc43)CCC5)c(Cl)c(F)n2)[C@@H](C)C1 [I-28, (S)-3-chloro-5-(1-(2-((3-chloro-6-(4-ethyl-2-methylpiperazin-1-yl)-2-fluoropyridin-4-yl)amino)-2-oxoethyl)-4-oxo-4,6,7,8-tetra-hydro-1H-dipyrrolo [1,2-a:2′,3′-d]pyri-midin-3-yl)-4-fluoro-2-hydroxybenzamide] | 779 | 1340 | 135 |  | 
4 | C[C@H]1CN(CC2CC2)CCN1c1cc(NC(=O)Cn2cc(-c3cc(C(N)=O)c(O)c(Cl)c3F)c3c(=O)n4c(nc32)CCC4)c(Cl)c(F)n1 [I-29, (S)-3-chloro-5-(1-(2-((3-chloro-6-(4-(cyclopropylmethyl)-2-methylpiperazin-1-yl)-2-fluoropyridin-4-yl)amino)-2-oxoethyl)-4-oxo-4,6,7,8-tetra-hydro-1H-dipyrrolo [1,2-a:2′,3′-d]pyrimi-din-3-yl)-4-fluoro-2-hydroxybenzamide] |  |  | 240 | 2590 | 2150
5 | NC(=O)c1cc(-c2cn(CC(=O)Nc3cc(N4CCOCC4)c(F)cc3Cl)c3nc4n(c(=O)c23)CCC4)c(F)c(F)c1O [I-30, 5-(1-(2-((2-chloro-4-fluoro-5-morpholino-phenyl)amino)-2-oxo-ethyl)-4-oxo-4,6,7,8-tetrahydro-1H-dipyrrolo [1,2-a:2′,3′-d]pyrimidin-3-yl)-3,4-difluoro-2-hydroxybenzamide] |  |  | 106 | 980 | 1110
6 | NC(=O)c1cc(-c2cn(CC(=O)Nc3cc(N4CCOCC4)ccc3Cl)c3nc4n(c(=O)c23)CCC4)c(F)c(F)c1O [I-31, 5-(1-(2-((2-chloro-5-morpholinophenyl)amino)-2-oxoethyl)-4-oxo-4,6,7,8-tetrahydro-1H-dipyrrolo[1,2-a:2′,3′-d]pyrimidin-3-yl)-3,4-difluoro-2-hydroxy-benzamide] |  |  | 141 | 2690 | 6300
7 | CN1CCN(c2ccc(Cl)c(NC(=O)Cn3cc(-c4cc(C(N)=O)c(O)c(F)c4F)c4c(=O)n5c(nc43)CCC5)c2)CC1 [I-32, 5-(1-(2-((2-chloro-5-(4-methylpiperazin-1-yl)phenyl)amino)-2-oxo-ethyl)-4-oxo-4,6,7,8-tetrahydro-1H-dipyrrolo [1,2-a:2′,3′-d]pyrimidin-3-yl)-3,4-difluoro-2-hydroxybenzamide] | 1340 | 3580 | 261 |  | 
8 | C[C@H]1CN(C)CCN1c1cc(NC(=O)Cn2cc(-c3cc(C(N)=O)c(O)c(F)c3F)c3c(=O)n4c(nc32)COCC4)c(Cl)c(F)n1 [I-33, (S)-5-(1-(2-((3-chloro-6-(2,4-dimethylpiperazin-1-yl)-2-fluoropyridin-4-yl)amino)-2-oxoethyl)-4-oxo-4,6,7,9-tetrahydro-1H-pyrrolo[2′,3′:4,5]pyrimido[2,1-c][1,4]oxazin-3-yl)-3,4-difluoro-2-hydroxybenzamide] |  |  | 11 | 214 | 149
9 | C[C@H]1CN(C2COC2)CCN1c1cc(NC(=O)Cn2cc(-c3cc(C(N)=O)c(O)c(F)c3F)c3c(=O)n4c(nc32)COCC4)c(Cl)c(F)n1 [I-34, (S)-5-(1-(2-((3-chloro-2-fluoro-6-(2-methyl-4-(oxetan-3-yl)piperazin-1-yl)pyridin-4-yl)amino)-2-oxoethyl)-4-oxo-4,6,7,9-tetrahydro-1H-pyrrolo[2′,3′:4,5]pyrimido [2,1-c][1,4]oxazin-3-yl)-3,4-difluoro-2-hydroxy-benzamide] |  |  | 7.24 | 177 | 155
10 | C[C@H]1CN(CCC(F)(F)F)CCN1c1cc(NC(=O)Cn2cc(-c3cc(C(N)=O)c(O)c(F)c3F)c3c(=O)n4c(nc32)CCC4)c(Cl)cn1 [I-35, (S)-5-(1-(2-((5-chloro-2-(2-methyl-4-(3,3,3-trifluoropropyl)piperazin-1-yl)pyridin-4-yl)amino)-2-oxoethyl)-4-oxo-4,6,7,8-tetrahydro-1H-dipyrrolo[1,2-a:2′,3′-d]pyrimidin-3-yl)-3,4-difluoro-2-hydroxy-benzamide] | 194 | 237 | 24.3 |  | 
11 | CN1CCN(c2cc(NC(=O)Cn3cc(-c4cc(C(N)=O)c(O)c(F)c4F)c4c(=O)n5c(nc43)CCC5)c(Cl)cn2)CC1 [I-36, 5-(1-(2-((5-chloro-2-(4-methylpiperazin-1-yl)pyridin-4-yl)amino)-2-oxoethyl)-4-oxo-4,6,7,8-tetrahydro-1H-dipyrrolo[1,2-a:2′,3′-d]pyrimidin-3-yl)-3,4-difluoro-2-hydroxy-benzamide] |  |  | 23.2 | 480 | 701
12 | CO[C@@H](C)CN1CCN(c2cc(NC(=O)Cn3cc(-c4cc(C(N)=O)c(O)c(F)c4F)c4c(=O)n5c(nc43)CCC5)c(Cl)c(F)n2)[C@@H](C)C1 [I-37, 5-(1-(2-((3-chloro-2-fluoro-6-((S)-4-((S)-2-methoxypropyl)-2-methylpiperazin-1-yl)pyridin-4-yl)amino)-2-oxoethyl)-4-oxo-4,6,7,8-tetrahydro-1H-dipyrrolo[1,2-a:2′,3′-d]pyrimidin-3-yl)-3,4-difluoro-2-hydroxy-benzamide] | 113 | 109 | 14.4 |  | 
13 | C[C@@H](C1CC1)N1CCN(c2cc(NC(=O)Cn3cc(-c4cc(C(N)=O)c(O)c(F)c4F)c4c(=O)n5c(nc43)CCC5)c(Cl)c(F)n2)[C@@H](C)C1 [I-38, 5-(1-(2-((3-chloro-6-((S)-4-((S)-1-cyclo-propylethyl)-2-methyl-piperazin-1-yl)-2-fluoropyridin-4-yl)amino)-2-oxoethyl)-4-oxo-4,6,7,8-tetrahydro-1H-dipyrrolo [1,2-a:2′,3′-d]pyrimidin-3-yl)-3,4-difluoro-2-hydroxybenzamide] | 444 | 193 | 32.5 |  | 
14 | C[C@H](C1CC1)N1CCN(c2cc(NC(=O)Cn3cc(-c4cc(C(N)=O)c(O)c(F)c4F)c4c(=O)n5c(nc43)CCC5)c(Cl)c(F)n2)[C@@H](C)C1 [I-39, 5-(1-(2-((3-chloro-6-((S)-4-((R)-1-cyclo-propylethyl)-2-methyl-piperazin-1-yl)-2-fluoropyridin-4-yl)amino)-2-oxoethyl)-4-oxo-4,6,7,8-tetrahydro-1H-dipyrrolo[1,2-a:2′,3′-d]pyrimidin-3-yl)-3,4-difluoro-2-hydroxy-benzamide] | 384 | 210 | 34.9 |  | 
15 | C[C@H]1CN(CCC(F)(F)F)CCN1c1cc(NC(=O)Cn2cc(-c3cc(C(N)=O)c(O)c(F)c3F)c3c(=O)n4c(nc32)CCC4)c(Cl)c(F)n1 [I-40, (S)-5-(1-(2-((3-chloro-2-fluoro-6-(2-methyl-4-(3,3,3-trifluoropropyl)piperazin-1-yl)pyridin-4-yl)amino)-2-oxoethyl)-4-oxo-4,6,7,8-tetrahydro-1H-dipyrrolo[1,2-a:2′,3′-d]pyrimidin-3-yl)-3,4-difluoro-2-hydroxy-benzamide] | 273 | 187 | 134 |  | 
16 | C[C@H]1COCCN1c1cc(NC(=O)Cn2cc(-c3cc(C(N)=O)c(O)c(F)c3F)c3c(=O)n4c(nc32)CCCC4)c(Cl)c(F)n1 [I-42, (S)-5-(1-(2-((3-chloro-2-fluoro-6-(3-methyl-morpholino)pyridin-4-yl)amino)-2-oxoethyl)-4-oxo-1,4,6,7,8,9-hexahydropyrido [1,2-a]pyrrolo[2,3-d]pyrimidin-3-yl)-3,4-difluoro-2-hydroxy-benzamide] | 331 | 407 | 29 |  | 
